Source: patent publication US6835382B2, “Ii peptide therapeutics to enhance antigen presentation” (University of Massachusetts, priority 1996, dated 2004)
Positions of bridges follow the written chain, without caps; N, C: chain ends. Non-standard residues stand in square brackets, D forms with d. No end group written: not given here. hArg = N=C(N)NCCCC[C@H](N)C(=O)O; Cit = NC(=O)NCCC[C@H](N)C(=O)O

Test system: murine E^k MHC class II allele
Test: simultaneous assay, E^k allele (CH27 APC, TPc9.1 T hybridoma, THMCC82-103 or PGCC81-104)
Format: cell-based
How it was run: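 Read-out is [3H]TdR incorporation into HT-2 indicator cells exposed to supernatant from a 24 h primary culture. That culture combined mitomycin C-treated APC (5×10^6 cells/mL, 0.025 mg/mL mitomycin C, 20 min, 37° C), peptide, effector compound and T hybridoma, all added at once.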

[1] = Table 15, AE peptide 16 μM, supernatant 1:4
[2] = Table 16, AE peptide 4 μM, supernatant 1:8
[3] = Table 18, AE peptide 64 μM, supernatant 1:4

| Substance | Times Baseline Response, E^k [2] | further results |
| --- | --- | --- |
| Ac-A[Cit]NKNPK-NH2 [AE351] | – | Times Baseline Response, E^k [1]: 1.6 |
| Ac-FK HArg MYP Cit-NH2 [AE371] | 1.5 | – |
| Ac-LK HArg KYPK-NH2 [AE363] | 1.7 | – |
| Ac-LKMKYPK-NH2 [AE362] | 1.3 | – |
| Ac-LR HArg KYP Cit-NH2 [AE366] | 49.4 | – |
| Ac-LR HArg MYPK-NH2 [AE365] | 20.1 | – |
| Ac-LR Orn K HArg PK-NH2 [AE340] | – | Times Baseline Response, E^k [1]: 39.5 |
| Ac-LRLKYPN-NH2 [AE368] | 11.2 | – |
| Ac-LRMKLPK (lactam 4-C) [AE382] | – | Times Baseline Response, E^k [3]: 18.1; activity in simultaneous assay on E^k, in words (Tables 2 and 18): moderately active |
| Ac-LRMKNPF-NH2 [AE350] | – | Times Baseline Response, E^k [1]: 24.2 |
| Ac-LRMKYPN-NH2 [AE370] | 7.5 | – |
| Ac-LRMKYP[Cit]-NH2 [AE364] | 16.6 | – |
| Ac-LRMMYP[Cit]-NH2 [AE367] | 6.6 | – |
| Ac-L[hArg]LKYPK-NH2 [AE361] | 4.6 | – |
| Ac-L[hArg]MKYPK-NH2 [AE360] | 2.5 | – |
| cyclic LRMKLPK (bridge (positions not given here); also: cyclic, ring type not given here) [AE381, “head-to-tail” cyclization from the amino-terminus to the carboxyl-terminus of AE114] | – | Times Baseline Response, E^k [3]: 0.56 |
